Data taken from patent US9682066B2 (University of Cincinnati, priority 2012, dated 2017).

Key:
[1] = Plasma protein binding with non-specific binding correction; assay type: in vitro ADME; settings: NSB correction, concentration range 0.1-10 μM
From the text: Results are presented as mean±SD.

[2] = Tumoral versus normal brain ECF pharmacokinetics in C6 glioma-bearing rats; assay type: in vivo; settings: female, Sprague-Dawley, rat, mean±SD; for AUC(0-t): 8 mg/kg IV bolus
MDA-MB-231 = assay: Cytotoxicity of letrozole (MTT assay); assay type: cell-based; settings: Homo sapiens
C6 glioma [3] = assay: In vivo anti-tumor efficacy of oral dosed letrozole; design: species or system rat; settings: 4 mg/kg/day oral gavage stopped after 15 days; scan on Day 45
From the text: Rats received tumor implantation as described in Example 6. […] Animals were scanned 5, 10, and 15 days after treatment period to observe change in tumor volume. After 15 days, treatment was stopped. Animals were scanned again on Day 45 (30 days post cessation of treatment).

aromatase = assay: Aromatase expression in rat glioma tissue (IHC); assay type: in vivo; settings: treatment group versus control group (high expression)
Protocol: Expression of aromatase in tumors from rats of both control and treatment groups was evaluated using immunohistochemical (IHC analysis). Rat ovary (FIG. 12(A)) was used as a positive control for aromatase expression.

T98G = assay: Cytotoxicity of letrozole (MTT assay); assay type: cell-based; settings: Homo sapiens
[4] = Tumoral versus normal brain ECF pharmacokinetics in C6 glioma-bearing rats; assay type: in vivo, female Sprague-Dawley rats
Protocol: Histology of rat brains was performed as outlined in Apparaju et al., Pharmacokinetics of gemcitabine in tumor and non-tumor extracellular fluid of brain: an in vivo assessment in rats employing intracerebral microdialysis, Cancer Chemother. Pharmacol. 61: 223-29 (2008).

[5] = tested on: brain metastases from breast cancer; settings: cited from earlier work
rat glioma cell line C6 = assay: Cytotoxicity of letrozole (MTT assay); assay type: cell-based
U373MG = assay: Cytotoxicity of letrozole (MTT assay); assay type: cell-based; settings: Homo sapiens, U373 MG
MCF-7 = assay: Cytotoxicity of letrozole (MTT assay); assay type: cell-based; settings: Homo sapiens, MCF7
[6] = Normal brain ECF (microdialysis) versus plasma pharmacokinetics, IV bolus; settings: for Cmax, Brain: brain ECF; for Cmax, Brain / AUC0-8 hr, Plasma ub (Unbound) / Cmax, Plasma ub (Unbound): mean±SD;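 for all read-outs here: parameters by non-compartmental analysis, mean±SD, brain ECF sampled by microdialysis in freely moving rats and corrected for in vivo recovery, Kp as brain ECF AUC over unbound plasma AUC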
Protocol: (§1) Experiments were carried out in female Sprague-Dawley rats weighing 200-250 g. […] Blood samples from jugular vein cannulation and dialysate samples from microdialysis probe implanted stereotactically into the striatum region of the brain were obtained every 30 minutes over 8 hours and analyzed by HPLC (fluorescence detection, Excitation λ, 230 nm; Emission λ, 295 nm). Microdialysate samples were corrected for in vivo relative recovery (9.5%), measured under similar experimental conditions.
(§2) In order to obtain the correct ECF concentrations from those obtained by bioanalysis of dialysate samples, the correction factor known as “% recovery” is employed. The % recovery for a compound can be obtained by in vivo or in vitro recovery analysis. […] In vitro relative recovery was calculated as follows: % recoveryin vitro=[C(dialysate)/C(reservoir)]×100
(§3) At the end of microdialysis, brain tissues were collected after transcardial perfusion for histological evaluation to confirm formation of tumor in the right striatum and immunohistochemistry to differentiate the expression of aromatase in tumoral and normal brain regions. The pharmacokinetic parameters (including time required to achieve maximum drug levels (Tmax), area under the concentrations-time curve (AUC) over a defined time interval, and peak or maximum concentrations (Cmax)) of both plasma and brain ECF were estimated by non-compartmental analysis using WinNonlin 6.2 (Pharsight Inc.).
(§4) The brain ECF concentrations were time-averaged over the collection interval and corrected for in vivo recovery. […] Results are presented as mean±SD. (N=9 for 4 and 8 mg/kg, N=6 for 6 and 12 mg/kg). […] Simultaneous plasma and ECF pharmacokinetic determination facilitated estimation of the relative brain distribution coefficient, calculated as (AUCbrain ecf/AUCplasma, ub).

[7] = Brain pharmacokinetics after oral administration; assay type: in vivo; settings: rat, 4 mg/kg oral gavage, brain ECF
From the text: A slight delay in Tmax was observed, consistent with the delay of appearance of the drug in systemic circulation.

C6 glioma [8] = settings: 4 mg/kg/day i.v.
From the text: 10 days after tumor implantation, anesthetized rats were scanned on μPET scanner (Siemens Inveon) to obtain active tumor volume at Day 0.
Animals were scanned again 8-10 days post treatment to assess change in tumor volume.

[9] = biological target: T1, aromatase activity in rat glioma cell line C6 (Rattus norvegicus, UniProt P22443); assay: Aromatase activity (estradiol EIA assay); assay type: cell-based; settings: testosterone 0.1 μM, 2 days incubation
T1 construct: endogenous in cells; host or cells: C6 rat glioma cell line
T1 sequence (P22443 1-508): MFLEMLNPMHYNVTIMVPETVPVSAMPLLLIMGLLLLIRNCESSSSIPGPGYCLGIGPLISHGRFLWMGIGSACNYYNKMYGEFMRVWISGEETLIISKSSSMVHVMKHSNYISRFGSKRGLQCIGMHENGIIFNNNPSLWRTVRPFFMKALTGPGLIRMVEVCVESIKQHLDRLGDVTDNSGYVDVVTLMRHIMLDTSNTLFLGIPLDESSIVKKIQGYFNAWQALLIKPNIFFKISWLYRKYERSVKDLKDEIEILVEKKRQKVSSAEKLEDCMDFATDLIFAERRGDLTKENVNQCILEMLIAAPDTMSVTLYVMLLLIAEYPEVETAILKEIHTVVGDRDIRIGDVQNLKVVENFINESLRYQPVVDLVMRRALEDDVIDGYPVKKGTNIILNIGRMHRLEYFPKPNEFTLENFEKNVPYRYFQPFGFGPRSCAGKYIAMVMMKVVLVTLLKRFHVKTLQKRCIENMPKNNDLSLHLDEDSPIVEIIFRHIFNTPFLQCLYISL

in vivo = settings: female, Sprague-Dawley, rat, iv
Protocol: as §1, §2, §3, §4

[10] = female, Sprague-Dawley, rat, tumor-free brain ECF (left striatum, control), 8 mg/kg IV bolus, tumor-free brain ECF, mean±SD

Compound: N#Cc1ccc(C(c2ccc(C#N)cc2)n2cncn2)cc1 [letrozole, 4,4′-((1H-1,2,4-triazol-1-yl)methylene)dibenzonitrile]
- fraction unbound [1]: 0.38
- Cmax ([2]; tumor-free brain ECF (left striatum, control), 4 mg/kg IV bolus, tumor-free brain ECF): 183 ± 13 ng/mL
- AUC(0-t) ([2]; tumor-free brain ECF (left striatum, control), tumor-free brain ECF, read-out: AUC0-8 hr, Control): 2280 ± 428 ng·h/mL
- AUC(0-t) ([2]; tumoral brain ECF (right striatum), tumoral brain ECF, read-out: AUC0-8 hr, Tumor): 4700 ± 555 ng·h/mL
- IC50 (MDA-MB-231): > 100 µM
- tumor course after cessation of treatment (C6 glioma [3]): tumors recurred once treatment was stopped
- aromatase expression in tumor sections (IHC) (aromatase): relatively low aromatase expression
- IC50 (T98G): 2810 nM
- Cmax, Tumor ([4]; 4 mg/kg IV bolus, tumoral brain ECF, mean±SD): 354 ± 34 ng/mL
- Cmax, Tumor ([4]; 8 mg/kg IV bolus, tumoral brain ECF, mean±SD): 1022 ± 204 ng/mL
- Tmax ([4]; female, Sprague-Dawley, rat, tumor-free brain ECF (left striatum, control), 4 mg/kg IV bolus, tumor-free brain ECF, mean±SD): 1.75 ± 0.5 h
- AUC(0-t) ([4]; female, Sprague-Dawley, rat, tumor-free brain ECF (left striatum, control), 4 mg/kg IV bolus, tumor-free brain ECF, mean±SD, read-out: AUC0-8 hr, Control): 803 ± 216 ng·h/mL
- Cmax [4, 10]: 475 ± 87 ng/mL
- Tmax [4, 10]: 1.33 ± 0.3 h
- AUC(0-t) ([4]; female, Sprague-Dawley, rat, tumoral brain ECF (right striatum), 4 mg/kg IV bolus, tumoral brain ECF, mean±SD, read-out: AUC0-8 hr, Tumor): 1160 ± 167 ng·h/mL
- penetration of BBB and BTB ([4]; rats, microdialysis): effectively crosses the BBB and BTB
- clinical response of brain metastases, case report (Madhup et al.) ([5]; person, 5-mg tablets once daily, repeat CECT in 2005): significant reduction in the brain metastases
- clinical response of brain metastases, case report (Goyal et al.) ([5]; postmenopausal person, 2.5 mg daily, 20 months later): complete recovery of neurological functions
- IC50 (rat glioma cell line C6): 110 nM
- IC50 (U373MG): 4.39 µM
- IC50 (MCF-7): < 100 nM
- Cmax, Brain ([6]; 4 mg/kg IV bolus): 132 ± 79 ng/mL
- AUC0-8 hr, Plasma ub (Unbound) ([6]; 4 mg/kg IV bolus): 1817 ± 354 ng·h/mL
- Cmax, Plasma ub (Unbound) ([6]; 4 mg/kg IV bolus): 259 ± 9 ng/mL
- AUC0-8 hr, Plasma ub (Unbound) ([6]; 6 mg/kg IV bolus): 2272 ± 56 ng·h/mL
- Cmax, Plasma ub (Unbound) ([6]; 6 mg/kg IV bolus): 348 ± 27 ng/mL
- Cmax, Brain ([6]; 8 mg/kg IV bolus): 376 ± 61 ng/mL
- AUC0-8 hr, Plasma ub (Unbound) ([6]; 8 mg/kg IV bolus): 3355 ± 412 ng·h/mL
- Cmax, Plasma ub (Unbound) ([6]; 8 mg/kg IV bolus): 485 ± 69 ng/mL
- Cmax, Brain ([6]; 12 mg/kg IV bolus): 631 ± 22 ng/mL
- AUC0-8 hr, Plasma ub (Unbound) ([6]; 12 mg/kg IV bolus): 3062 ± 539 ng·h/mL
- Cmax, Plasma ub (Unbound) ([6]; 12 mg/kg IV bolus): 787 ± 98 ng/mL
- dose linearity of brain and plasma pharmacokinetics ([6]; IV bolus 4, 6, 8, 12 mg/kg, linear regression of Cmax and AUC0-8hr): linear up to 8 mg/kg and potentially non-linear thereafter
- Cmax [7]: 176 ± 23 ng/mL
- Tmax [7]: 5.75 ± 1.8 h
- AUC(0-t) ([7]; read-out: AUC0-8 hr): 976 ± 162 ng·h/mL
- clinical condition of treated rats (C6 glioma [8]; throughout the treatment period): no clinical symptoms
- tumor volume, treatment rat 8, day 8 (C6 glioma [8]; Day 0 volume 90.9 mm^3): 5.8 mm^3
- tumor volume, treatment rat 4, Day 5 (C6 glioma [8]; Day 0 volume 100.5 mm^3): 70.5 mm^3
- tumor volume, treatment rat 4, Day 10 (C6 glioma [8]; Day 0 volume 100.5 mm^3): 18.7 mm^3
- IC50 [9]: 100 nM
- Kp (in vivo; brain ECF (striatum microdialysate) versus unbound plasma, 4 mg/kg): 0.51
- Kp (in vivo; brain ECF / unbound plasma, 4 mg/kg): 0.32
- Kp (in vivo; brain ECF / unbound plasma, 6 mg/kg): 0.98
- Kp (in vivo; brain ECF / unbound plasma, 8 mg/kg): 0.77
- Kp (in vivo; brain ECF / unbound plasma, 12 mg/kg): 0.8
- AUC(0-t) (in vivo; brain ECF, 4 mg/kg): 583 ± 189 ng·h/mL
- Cmax (in vivo; brain ECF, 4 mg/kg): 132 ± 79 ng/mL
- Tmax (in vivo; brain ECF, 4 mg/kg): 1.4 ± 0.6 h
- AUC(0-t) (in vivo; brain ECF, 6 mg/kg): 2010 ± 137 ng·h/mL
- AUC(0-t) (in vivo; brain ECF, 8 mg/kg): 2640 ± 286 ng·h/mL
- Tmax (in vivo; brain ECF, 8 mg/kg): 1.33 ± 0.5 h
- AUC(0-t) (in vivo; brain ECF, 12 mg/kg): 2550 ± 173 ng·h/mL
- Tmax (in vivo; brain ECF, 12 mg/kg): 1.3 to 1.5 h
- AUC(0-t) (in vivo; plasma (total), 4 mg/kg): 4780 ± 932 ng·h/mL
- Cmax (in vivo; plasma (total), 4 mg/kg): 682 ± 24 ng/mL
- AUC(0-t) (in vivo; plasma (total), 6 mg/kg): 5980 ± 146 ng·h/mL
- Cmax (in vivo; plasma (total), 6 mg/kg): 916 ± 71 ng/mL
- AUC(0-t) (in vivo; plasma (total), 8 mg/kg): 8830 ± 1080 ng·h/mL
- Cmax (in vivo; plasma (total), 8 mg/kg): 1280 ± 182 ng/mL
- AUC(0-t) (in vivo; plasma (total), 12 mg/kg): 8060 ± 1420 ng·h/mL
- Cmax (in vivo; plasma (total), 12 mg/kg): 2070 ± 258 ng/mL
